Laboratory results published in patent US20030225002A1, “Co-therapy for the treatment of migraine comprising anticonvulsant derivatives and anti-migraine agents” (priority 2002, published 2003).
Where a name gives a salt, the structure may show the parent alone.

How the values were obtained:
Type in all cases: in vivo, human
[1] = tested on: refractory migraine (migraine without aura); assay: Case Study 2: refractory migraine without aura; conditions: for Response of refractory migraine to earlier therapy: CORGARD in combination with PROZAC or CELEXA or trazodone
Method: The patient was a person with a lifelong history of refractory migraine (migraine without aura), averaging 8 migraines per month. […] The patient was started on topiramate at 25 mg/day, with dosage increasing to 75 mg/day. Simultaneously, the beta-blocker, CORGARD dosage was decreased to 20 mg/day, with CELEXA at 20 mg/day also continued.

[2] = tested on: severe refractory migraine with and without aura; assay: Case Study 3: severe refractory migraine with and without aura
Method: The patient was a person with a twenty-year history of severe refractory migraine with and without aura. […] The patient was started on topiramate at 50 mg/day increasing to 100 mg in the morning and 100 mg in the evening, in combination with INDERAL at 160 mg/day. […] After about 6 months, the patient was prescribed EFFEXOR XR (vanlafaxine HCl) at 37 mg/day, an increased topiramate dose of 125 mg in the morning and 150 mg in the evening, and 160 mg/day INDERAL.

[3] = tested on: persistent daily headache with migraine features; assay: Case Study 1: persistent daily headache with migraine features; conditions: one patient; for Response of persistent daily headache to earlier therapy: before topiramate
Description: The patient was a person with persistent daily headache with migraine features.

CN(C)CCCC1(c2ccc(F)cc2)OCc2cc(C#N)ccc21 (stereo not shown) [CELEXA, citalopram HCl]
Response of refractory migraine to earlier therapy [1]: no response

CC(C)(C)NCC(O)COc1cccc2c1CC(O)C(O)C2 (stereo not shown) [CORGARD, nadolol]
Response of refractory migraine to earlier therapy [1]: no response

CCCC(CCC)C(=O)O [DEPAKOTE, valproic acid]
Response of severe refractory migraine ([2]; earlier therapy): modest symptomatic response
Tolerability, reason for discontinuation ([2]; earlier therapy): discontinued due to weight gain

CC(C)NCC(O)COc1cccc2ccccc12.Cl (stereo not shown) [INDERAL, propranolol HCl]
Response of persistent daily headache to earlier therapy [3]: failed to respond
Response of severe refractory migraine ([2]; INDERAL at 120 mg/day in combination with tricyclic antidepressants): Only modest response

CN1CCC(=C2c3ccccc3C=Cc3ccccc32)CC1 [PERIACTIN, cyproheptadine HCl]
Response of persistent daily headache to earlier therapy [3]: failed to respond

CNCCC(Oc1ccc(C(F)(F)F)cc1)c1ccccc1 (stereo not shown) [PROZAC, fluoxetine HCl]
Response of refractory migraine to earlier therapy [1]: no response

CNS(=O)(=O)CCc1ccc2[nH]cc(C3CCN(C)CC3)c2c1 [naratriptan]
Response of severe headaches [3]: did however respond

CNCCC=C1c2ccccc2CCc2ccccc21 [nortriptyline]
Response of persistent daily headache to earlier therapy [3]: failed to respond

Cc1cc2nc3c(=O)[nH]c(=O)nc-3n(C[C@H](O)[C@H](O)[C@H](O)CO)c2cc1C [riboflavin]
Effect of supplementation ([1]; 400 mg/day): no improvement

CNS(=O)(=O)Cc1ccc2[nH]cc(CCN(C)C)c2c1 [sumatriptan]
Response of severe refractory migraine ([2]; repeated frequent use): symptomatic response

O=c1n(CCCN2CCN(c3cccc(Cl)c3)CC2)nc2ccccn12 [trazodone]
Response of refractory migraine to earlier therapy [1]: no response
